In patent US10342796B2, “Acrylanilide derivative, preparation method, and applications thereof in pharmacy” (Ancureall Pharmaceutical (Shanghai) Co., Ltd., priority 2015, dated 2019) one finds GI50 data, which are given here for two molecules.

Like-named read-outs stand apart in the source and are kept apart here.

In the assay the test system is SW48 (EGFR G719S positive). As to the kind of experiment: Growth inhibition GI50 in vitro (CCK8/MTT, 72 h). The assay is classed as cell-based. The conditions noted are these: Homo sapiens. Here is the method: PC-9ER is an acquired Erlotinib resistance cell line of PC-9 cells developed by the investor. […] The four cell lines above were cultured with 1×RPMI1640 complete medium (supplement with 10% FBS). Human colon cancer cell line SW48 (EGFR G719S positive, ATCC). was cultured with L15 complete medium (10% FB S).
The suspension cells were collected by centrifugation. The supernatant was discard and the cell pellet was resuspended and counted. Different cell concentrations (5˜10×10^4 cells/mL) were prepared according to the growth cycle of each cell line and then seeded on a 96-well plate (Corning), 100 μL/well. The cells were incubated over night at 37° C., 5% CO2. The compounds were added to the cells on the second day with 2 wells in parallel. The final concentration of organic solvent shall not exceed 1%. The cells were continually incubated for 72 h, and then subjected to MTT assay.
The present compounds and the reference compounds were dissolved with DMSO (Sigma), respectively. […] The storage concentration of compounds was 10 mM and kept at −20° C. They were diluted by 2 times or 10 times with serial dilution before using.
Dojindo CCK8 reagent kit was used as MTT assay. […] FC meter was used as microplate reader.
Adherent cell culture medium was discard and immediately replaced with fresh prepared medium which contains 10% CCK8 reagent (100 μL/well). For the suspension cells, CCK8 was directly added to 10% of the final concentration. The cells were continually incubated for 1˜4 h. When the color of control wells turned to dark yellow, the absorption value was measured at OD450 nm. The cell growth rate was calculated according to the following formula: cell growth rate (%)=100*(T−T0)/(C−T0), T=optical density of drug treatment cell well—optical density of blank control well; T0=optical density of cell well before drug treatment—optical density of blank control well; C=optical density of cell well of solvent control group—optical density of blank control well. […] The experiment was independently repeated 1˜3 times, and subject to biological statistical analysis.
Each compound started at 1000 nM as an initial concentration and was diluted by […] with serial dilution to 0.03 nM.

Turning to `C=CC(=O)Nc1cc(Nc2nccc(-c3cn(C)c4ccccc34)n2)c(OC)cc1N(C)CCN(C)C` [AZD9291, reference compound], for the setting “SW48, read-out: GI50 SW48 (EGFR G719S)”, the GI50 is 156 nM.

On to `C=CC(=O)Nc1cc(Nc2cc(Nc3cc(F)c(OC)c(Cl)c3)ncn2)c(OC)cc1N(C)CCN(C)C` [Compound 236, N-(5-(6-(3-chloro-5-fluoro-4-methoxyphenylamino)-pyrimidin-4-yl-amino)-2-((2-dimethylamino-ethyl)-methyl-amino)-4-methoxyl-phenyl)-acrylamide], for which the GI50 (SW48, Table 15, 1000 nM to 0.03 nM serial dilution, read-out: GI50 SW48 (EGFR G719S)) came out at 4.23 nM.
